Measurements: ChEMBL document CHEMBL5120847, “Enceleamycins A-C, Furo-Naphthoquinones from Amycolatopsis sp. MCC0218: Isolation, Structure Elucidation, and Antimicrobial Activity” (2022)
Converted amounts (≈) assume the structure as drawn.

Tests used:
Type in all cases: functional
Staphylococcus aureus [1] = assay: Antibacterial activity against Staphylococcus aureus ATCC 9144 assessed as inhibition of visible bacterial growth incubated for 18 hrs by CLSI protocol based assay
[2] = test system: Staphylococcus epidermidis; assay: Antibacterial activity against Staphylococcus epidermidis ATCC 12228 assessed as inhibition of visible bacterial growth incubated for 18 hrs by CLSI protocol based assay
Bacillus cereus = assay: Antibacterial activity against Bacillus cereus ATCC 11778 assessed as inhibition of visible bacterial growth incubated for 18 hrs by CLSI protocol based assay
Bacillus subtilis = assay: Antibacterial activity against Bacillus subtilis ATCC 6633 assessed as inhibition of visible bacterial growth incubated for 18 hrs by CLSI protocol based assay
Micrococcus luteus = assay: Antibacterial activity against Micrococcus luteus ATCC 9341 assessed as inhibition of visible bacterial growth incubated for 18 hrs by CLSI protocol based assay
Listeria monocytogenes = assay: Antibacterial activity against Listeria monocytogenes ATCC19111 assessed as inhibition of visible bacterial growth incubated for 18 hrs by CLSI protocol based assay
[3] = test system: Mycolicibacterium smegmatis; assay: Antibacterial activity against Mycobacterium smegmatis ATCC 607 assessed as inhibition of visible bacterial growth incubated for 48 hrs by CLSI protocol based assay
Staphylococcus aureus [4] = assay: Antibacterial activity against methicillin-resistant Staphylococcus aureus clinical isolate 3B assessed as inhibition of visible bacterial growth incubated for 18 hrs by CLSI protocol based assay
Staphylococcus aureus [5] = assay: Antibacterial activity against methicillin-resistant Staphylococcus aureus clinical isolate 6B assessed as inhibition of visible bacterial growth incubated for 18 hrs by CLSI protocol based assay
Staphylococcus aureus [6] = assay: Antibacterial activity against methicillin-resistant Staphylococcus aureus clinical isolate 9B assessed as inhibition of visible bacterial growth incubated for 18 hrs by CLSI protocol based assay
Staphylococcus aureus [7] = assay: Antibacterial activity against methicillin-resistant Staphylococcus aureus clinical isolate 10B assessed as inhibition of visible bacterial growth incubated for 18 hrs by CLSI protocol based assay
Escherichia coli = assay: Antibacterial activity against Escherichia coli ATCC 8739 assessed as inhibition of visible bacterial growth incubated for 18 hrs by CLSI protocol based assay
Pseudomonas aeruginosa = assay: Antibacterial activity against Pseudomonas aeruginosa ATCC 9027 assessed as inhibition of visible bacterial growth incubated for 18 hrs by CLSI protocol based assay

| Compound | MIC (Staphylococcus aureus [1]) [µg/mL] | MIC [2] [µg/mL] | MIC (Bacillus cereus) [µg/mL] | MIC (Bacillus subtilis) [µg/mL] | MIC (Micrococcus luteus) [µg/mL] | MIC (Listeria monocytogenes) [µg/mL] | MIC [3] [µg/mL] | MIC (Staphylococcus aureus [4]) [µg/mL] | MIC (Staphylococcus aureus [5]) [µg/mL] | MIC (Staphylococcus aureus [6]) [µg/mL] | MIC (Staphylococcus aureus [7]) [µg/mL] | MIC (Escherichia coli) [µg/mL] | MIC (Pseudomonas aeruginosa) [µg/mL] |
| --- | --- | --- | --- | --- | --- | --- | --- | --- | --- | --- | --- | --- | --- |
| C[C@H]1O[C@@H]2O[C@@H]3C4C(=O)c5cccc(O)c5C(=O)C4O[C@]3(C)[C@@]21O (stereo partly specified) | 2 (≈ 6.02 µM) | 2 (≈ 6.02 µM) | 8 (≈ 24.1 µM) | 4 (≈ 12 µM) | 8 (≈ 24.1 µM) | 2 (≈ 6.02 µM) | 64 (≈ 193 µM) | 4 (≈ 12 µM) | 4 (≈ 12 µM) | 4 (≈ 12 µM) | 4 (≈ 12 µM) | > 128 | > 128 |
| CC(C)Cc1nc([C@H](C)C(=O)O)c(C(C)C)n(O)c1=O | 128 (≈ 453 µM) | 64 (≈ 227 µM) | 128 (≈ 453 µM) | 128 (≈ 453 µM) | 64 (≈ 227 µM) | 128 (≈ 453 µM) | > 128 | 128 (≈ 453 µM) | 128 (≈ 453 µM) | 128 (≈ 453 µM) | 128 (≈ 453 µM) | > 128 | > 128 |
| C[C@H]1O[C@]12[C@@H](O)O[C@H]1[C@]2(C)O[C@]2(O)C(=O)c3c(O)cccc3C(=O)[C@@]12O | 128 (≈ 351 µM) | 64 (≈ 176 µM) | > 128 | > 128 | > 128 | 128 (≈ 351 µM) | > 128 | > 128 | > 128 | > 128 | 128 (≈ 351 µM) | > 128 | > 128 |
| C[C@H]1O[C@@H]2C3=C(O[C@]2(C)[C@@]1(O)C=O)C(=O)c1c(O)cccc1C3=O | 8 (≈ 24.2 µM) | 8 (≈ 24.2 µM) | 16 (≈ 48.4 µM) | 16 (≈ 48.4 µM) | 32 (≈ 96.9 µM) | 8 (≈ 24.2 µM) | 64 (≈ 194 µM) | 16 (≈ 48.4 µM) | 8 (≈ 24.2 µM) | 16 (≈ 48.4 µM) | 8 (≈ 24.2 µM) | > 128 | > 128 |
| CC1(C)S[C@@H]2[C@H](NC(=O)[C@H](N)c3ccccc3)C(=O)N2[C@H]1C(=O)O [AMPICILLIN] | 0.03 (≈ 0.0859 µM) | 1 (≈ 2.86 µM) | 16 (≈ 45.8 µM) | 0.03 (≈ 0.0859 µM) | 0.03 (≈ 0.0859 µM) | 0.03 (≈ 0.0859 µM) | 64 (≈ 183 µM) | 8 (≈ 22.9 µM) | 8 (≈ 22.9 µM) | – | 4 (≈ 11.4 µM) | – | 2 (≈ 5.72 µM) |
| NC[C@H]1O[C@H](O[C@H]2[C@H](O)[C@@H](O[C@H]3O[C@H](CO)[C@@H](O)[C@H](N)[C@H]3O)[C@H](N)C[C@@H]2N)[C@H](O)[C@@H](O)[C@@H]1O [KANAMYCIN] | 8 (≈ 16.5 µM) | 1 (≈ 2.06 µM) | 2 (≈ 4.13 µM) | 0.5 (≈ 1.03 µM) | 8 (≈ 16.5 µM) | 1 (≈ 2.06 µM) | 0.25 (≈ 0.516 µM) | > 128 | > 128 | 128 (≈ 264 µM) | > 128 | 8 (≈ 16.5 µM) | 8 (≈ 16.5 µM) |
